Data: the supplement of paper PMC11451515

Tested on: NOMO1
Assay: cell viability relative to DMSO control; higher = less cytotoxic
Details: 48 h
How it was run: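 Library compounds in DMSO were pin-dosed in an 11-point threefold series (47 μM to 0.79 nM) onto leukemia cells in 1536-well plates (5 μl). Plates held 500 cells/well of NOMO1 or SEM or 1000 cells/well of P12-Ichikawa, each adapted for at least four passages in each medium. Luminescence was read with CellTiter-Glo One after 48 h at 37°C. Viability means the per-plate percentage relative to DMSO wells, using cell-free wells as background.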

[1] = HPLM + 10% dialyzed FBS, 0.000781 µM
[2] = HPLM + 10% dialyzed FBS, 0.00234 µM
[3] = HPLM + 10% dialyzed FBS, 0.00702 µM
[4] = HPLM + 10% dialyzed FBS, 0.0211 µM
[5] = HPLM + 10% dialyzed FBS, 0.0632 µM
[6] = HPLM + 10% dialyzed FBS, 0.19 µM
[7] = HPLM + 10% dialyzed FBS, 0.569 µM
[8] = HPLM + 10% dialyzed FBS, 1.71 µM
[9] = HPLM + 10% dialyzed FBS, 5.12 µM
[10] = HPLM + 10% dialyzed FBS, 15.4 µM
[11] = HPLM + 10% dialyzed FBS, 46.1 µM
[12] = RPMI 5 mM glucose + 10% FBS, 0.000781 µM
[13] = RPMI 5 mM glucose + 10% FBS, 0.00234 µM
[14] = RPMI 5 mM glucose + 10% FBS, 0.00702 µM
[15] = RPMI 5 mM glucose + 10% FBS, 0.0211 µM
[16] = RPMI 5 mM glucose + 10% FBS, 0.0632 µM
[17] = RPMI 5 mM glucose + 10% FBS, 0.19 µM
[18] = RPMI 5 mM glucose + 10% FBS, 0.569 µM
[19] = RPMI 5 mM glucose + 10% FBS, 1.71 µM
[20] = RPMI 5 mM glucose + 10% FBS, 5.12 µM
[21] = RPMI 5 mM glucose + 10% FBS, 15.4 µM
[22] = RPMI 5 mM glucose + 10% FBS, 46.1 µM
[23] = RPMI 5 mM glucose + 10% dialyzed FBS, 0.000781 µM
[24] = RPMI 5 mM glucose + 10% dialyzed FBS, 0.00234 µM
[25] = RPMI 5 mM glucose + 10% dialyzed FBS, 0.00702 µM
[26] = RPMI 5 mM glucose + 10% dialyzed FBS, 0.0211 µM
[27] = RPMI 5 mM glucose + 10% dialyzed FBS, 0.0632 µM
[28] = RPMI 5 mM glucose + 10% dialyzed FBS, 0.19 µM
[29] = RPMI 5 mM glucose + 10% dialyzed FBS, 0.569 µM
[30] = RPMI 5 mM glucose + 10% dialyzed FBS, 1.71 µM
[31] = RPMI 5 mM glucose + 10% dialyzed FBS, 5.12 µM
[32] = RPMI 5 mM glucose + 10% dialyzed FBS, 15.4 µM
[33] = RPMI 5 mM glucose + 10% dialyzed FBS, 46.1 µM

Structure (SMILES)	cell viability [1]	cell viability [2]	cell viability [3]	cell viability [4]	cell viability [5]	cell viability [6]	cell viability [7]	cell viability [8]	cell viability [9]	cell viability [10]	cell viability [11]	cell viability [12]	cell viability [13]	cell viability [14]	cell viability [15]	cell viability [16]	cell viability [17]	cell viability [18]	cell viability [19]	cell viability [20]	cell viability [21]	cell viability [22]	cell viability [23]	cell viability [24]	cell viability [25]	cell viability [26]	cell viability [27]	cell viability [28]	cell viability [29]	cell viability [30]	cell viability [31]	cell viability [32]	cell viability [33]
CNC(=O)c1ccc(N2C(=S)N(c3ccc(C#N)c(C(F)(F)F)c3)C(=O)C2(C)C)cc1F	87.7%	114%	105%	125%	117%	127%	120%	115%	143%	127%	111%	93%	124%	121%	118%	125%	111%	111%	121%	123%	121%	115%	102%	112%	103%	113%	121%	116%	124%	126%	115%	121%	114%
C[C@]12CC[C@@H]3c4ccc(O)cc4CC[C@H]3[C@@H]1CC[C@@H]2O	124%	124%	124%	112%	117%	115%	117%	116%	112%	56.3%	46.9%	–	–	–	–	–	–	–	–	–	–	–	107%	116%	105%	133%	128%	116%	104%	103%	104%	91.8%	35.6%
O=[N+]([O-])c1ccc(Nc2ccccc2-c2ccccc2)c2nonc12	87.1%	84.3%	100%	92.6%	81.9%	100%	97%	101%	106%	89%	98.1%	81.5%	89.9%	87.9%	91.9%	85.3%	92.8%	84.4%	102%	95.8%	94.2%	89.4%	76.3%	82.6%	88%	89.8%	92.5%	90.2%	89.2%	96.1%	87.5%	78.2%	88.7%
CN1CCN(Cc2ccc(NC(=O)Nc3ccc(Oc4cc(NC(=O)C5CC5)ncn4)cc3)cc2C(F)(F)F)CC1	104%	104%	120%	129%	143%	141%	12%	4.6%	3.07%	2.49%	0.956%	110%	125%	118%	125%	138%	149%	22%	8.28%	6.02%	4.38%	2.32%	106%	122%	114%	125%	146%	161%	18%	6.64%	5.97%	3.84%	2.43%
O=C(O)[C@@H](c1ccc(OCc2ccc3ccccc3n2)cc1)C1CCCC1	118%	114%	118%	126%	106%	119%	115%	119%	110%	109%	90.5%	104%	117%	107%	109%	125%	111%	104%	121%	113%	102%	120%	119%	101%	122%	113%	123%	119%	103%	108%	106%	100%	95.4%
NC/1=N/C(=O)N(C[C@@H](CO)OC[P](O)(O)=O)/C=C1	–	–	–	–	–	–	–	–	–	–	–	125%	149%	123%	122%	136%	135%	128%	119%	122%	123%	128%	–	–	–	–	–	–	–	–	–	–	–
Cc1cccc(N(C)C(=S)Oc2ccc3ccccc3c2)c1	110%	120%	116%	124%	117%	112%	123%	121%	100%	92%	110%	99.9%	94.2%	106%	107%	108%	98.8%	97.2%	97.3%	94.5%	103%	99.6%	98.1%	105%	99.8%	112%	99.8%	95.2%	107%	110%	104%	101%	106%
COc1cc(NC(=O)c2ccc(-c3ccc(Cl)cc3)o2)cc(OC)c1	95.5%	103%	112%	112%	114%	118%	112%	104%	61.8%	52.7%	39.6%	91.4%	106%	104%	100%	101%	110%	108%	92.1%	58.7%	74.4%	72.3%	97.5%	111%	108%	108%	111%	115%	109%	94.9%	66.8%	50.7%	62.8%
